One test deals with Plasma. Description: Inhibition of ADP-induced platelet aggregation in human platelet-rich plasma by Born's method.
In test [1] the target is Integrin alpha-IIb/beta-3 (Homo sapiens). Description: Displacement of FITC-Fg from integrin alphaIIbbeta3 receptor expressed in human activated platelets.

In general, IC50 refers to the midpoint of a concentration-inhibition curve.

For the molecule `O=C(O)CC(NC(=O)c1cc(C(=O)Nc2ccc3c(c2)CNCC3)cc([N+](=O)[O-])c1)c1ccccc1` (stereo unspecified), the IC50 was determined as 0.71 µM in the test on Plasma and 0.008 µM in test [1].

Regarding `O=C(O)CCNC(=O)c1cc(C(=O)Nc2ccc3c(c2)CNCC3)cc([N+](=O)[O-])c1`, the IC50 in the test with Plasma was determined as 2.3 µM; in test [1], 0.032 µM.

As to `COc1ccc(C(CC(=O)O)NC(=O)c2cccc(C(=O)Nc3ccc4c(c3)CNCC4)c2)cc1` (stereo unspecified), the IC50 with Plasma is 0.017 µM; in test [1], 0.0008 µM.

Take `COc1ccc(C(CC(=O)O)NC(=O)c2cc(C(=O)Nc3ccc4c(c3)CNCC4)cc([N+](=O)[O-])c2)cc1` (stereo unspecified): the IC50 was 0.45 µM in the test on Plasma and 0.005 µM in test [1].

With `O=C(O)CCNC(=O)c1cccc(C(=O)Nc2ccc3c(c2)CNCC3)c1`, the IC50 with Plasma is 0.078 µM; in test [1] it was 0.009 µM.

With `O=C(O)CC(NC(=O)c1cccc(C(=O)Nc2ccc3c(c2)CNCC3)c1)c1ccccc1` (stereo unspecified), the IC50 in the test on Plasma is 0.025 µM; in test [1] it was 0.001 µM.

With `COc1ccc(C(CC(=O)O)NC(=O)c2cccc(C(=O)Nc3ccc4c(c3)CNCC4)c2)cc1OC` (stereo unspecified), the IC50 in the test with Plasma turned out to be 0.0116 µM; in test [1], 0.0007 µM.

With `COc1ccc(C(CC(=O)O)NC(=O)c2cc(C(=O)Nc3ccc4c(c3)CNCC4)cc([N+](=O)[O-])c2)cc1OC` (stereo unspecified), the IC50 was 0.34 µM in the test with Plasma and 0.0037 µM in test [1].

Values taken from ChEMBL document CHEMBL1137247, “Derivatives of 7-amino-1,2,3,4-tetrahydroisoquinoline and isophthalic acids as novel fibrinogen receptor antagonists” (Bioorg Med Chem Lett, 2006).
